The values below come from patent US20090270496A1, “ANTIFUNGAL COMPOUNDS” (priority 2007, published 2009).

Data set [1] deals with cytoplasmic Ca2+ in S. cerevisiae cells (FY70 [pEVP11/AEQ]). The data set is described as follows: Aequorin luminescence, yeast cytoplasmic Ca2+. Note: monitored 3.5 min. The data set is classed as cell-based, Saccharomyces cerevisiae. Particulars: 50 μM added at t=30 sec, monitored […].
Protocol: Cells were transformed with pEVP11/AEQ, which constitutively expresses apoaequorin directed to the cytoplasm (Batiza et al., 1996) Transformed cells were grown to mid-exponential phase in SD-leu to maintain the plasmid. 1.5×10^7 cells were pelleted and resuspended in fresh SD-leu medium containing 5.9 μM coelenterazine for 1 hour to allow the cofactor to diffuse into cells and bind the apoaequorin. Cells were pelleted again and resuspended in fresh SD-leu (“SD” buffer) and 2.5×10^6 cells per well aliquoted to a microtiter plate for luminescence measurement. Luminescence was measured in an EG&G Berthold luminometer using Winglow monitoring and analysis software.
S. cerevisiae cells were prepared for aequorin assays as just described.
A further data set relates to HL-60 cells. Particulars: in the presence but not in the absence of extracellular Ca2+; cited from earlier work.
For data set [2] the following is noted: cited from earlier work.
In a further data set the target is Gi2 (Homo sapiens, UniProt P04899). Particulars: reconstituted Gi2, in vitro; read-out: EC50, activation of GTPase; cited from earlier work.
Sequence of Gi2 (P04899 2-355 limits assumed): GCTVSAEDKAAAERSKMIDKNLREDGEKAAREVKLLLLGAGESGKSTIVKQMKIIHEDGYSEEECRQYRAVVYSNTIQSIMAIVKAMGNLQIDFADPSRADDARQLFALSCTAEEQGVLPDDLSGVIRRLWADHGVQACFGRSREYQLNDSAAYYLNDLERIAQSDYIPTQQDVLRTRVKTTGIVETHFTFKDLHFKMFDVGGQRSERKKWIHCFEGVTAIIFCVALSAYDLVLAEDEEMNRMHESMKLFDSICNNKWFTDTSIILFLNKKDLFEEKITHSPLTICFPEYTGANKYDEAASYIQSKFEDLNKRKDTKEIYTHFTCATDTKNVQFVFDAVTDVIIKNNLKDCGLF
For data set [3] the following is noted: during chronic treatment; cited from earlier work.

Take `CCCCc1oc2ccccc2c1C(=O)c1cc(I)c(OCCN(CC)CC)c(I)c1` [Amiodarone, amiodarone]: the “increase in RLUs (cytoplasmic Ca2+)” value in data set [1] is “immediate and very large increase”; in data set [1] (listed as amiodarone), “immediate and huge increase”. In the data set on HL-60 cells, the “cytosolic Ca2+ concentration” value is recorded as “increased”. In addition, the “ataxia, patients affected” value in data set [2] (especially during loading doses) is given as 20-40%. In addition, the “pulmonary fibrosis or pneumonitis fatal, cases” value in data set [2] (human, in vivo) is recorded as “about 10%”. For the same compound, on Gi2, the concentration for a half-maximal effect (EC50) was 50 µM.

As to `CCCCc1oc2ccccc2c1C(=O)c1cc(I)c(OCCNCC)c(I)c1` [desethylamiodarone], the “plasma ratio of metabolite to parent compound” value in data set [3] is reported as “approximately one”.
